Consider ten compounds from ChEMBL document CHEMBL1201862, “PubChem BioAssay data set” (2004).

Experiment [1] is described as follows: viability loss in THP-1 monocytes – THP-1 cells, cytotoxicity control for Vif-APOBEC3G degradation inhibitor project, dose response (AID 1117359). It counts as functional. Particulars: THP-1.
The target in another experiment is Paired box protein Pax-8 (Homo sapiens, UniProt Q06710). The experiment is described as follows: PAX8 transcriptional activity inhibition in RMG-I – RMG-I cells, luciferase, cherry-pick, dose response (AID 687027).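 Note: luciferase reporter driven by Pax8 target thyroperoxidase promoter measured by SteadyGlo luminescence.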 It counts as functional, cell-based.
Chain of Paired box protein Pax-8 (Q06710 whole entry): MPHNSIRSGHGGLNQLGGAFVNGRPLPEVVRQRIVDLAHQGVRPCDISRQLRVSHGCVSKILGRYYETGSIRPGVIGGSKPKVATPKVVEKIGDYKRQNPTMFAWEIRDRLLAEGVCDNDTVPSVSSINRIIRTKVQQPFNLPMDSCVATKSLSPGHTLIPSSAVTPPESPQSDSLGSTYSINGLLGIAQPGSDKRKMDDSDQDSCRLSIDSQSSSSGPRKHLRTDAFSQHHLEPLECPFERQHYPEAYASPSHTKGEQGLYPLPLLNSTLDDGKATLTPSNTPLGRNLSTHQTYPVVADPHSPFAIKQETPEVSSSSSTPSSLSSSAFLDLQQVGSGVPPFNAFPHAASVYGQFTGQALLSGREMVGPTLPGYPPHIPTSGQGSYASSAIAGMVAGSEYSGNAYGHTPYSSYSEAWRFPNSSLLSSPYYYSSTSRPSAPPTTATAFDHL
Experiment [2] in a line: toxicity toward immortalized ovarian surface epithelium – cell-based, plate reader, dry powder samples, cytotoxicity control for PAX8 inhibitor project, dose response (AID 743045). Format: functional.
Experiment [3] can be described thus: OVCAR-3 cell viability loss – plate reader, dry powder samples, PAX8 inhibitor project, dose response (AID 743044). It counts as functional, cell-based.
Experiment [4] in a line: IGROV1 cell killing – plate reader, dry powder samples, PAX8 inhibitor project, dose response (AID 743043). To be noted: IGROV-1. Format: functional, cell-based.
Experiment [5] is described as follows: general cell-killing toxicity readout – plate reader, dry powder samples, cytotoxicity control for PAX8 inhibitor project, dose response (AID 743021). Format: functional, cell-based.
Experiment [6] is described as follows: OVCAR8 cell viability loss – plate reader, dry powder samples, PAX8 project, dose response (AID 743197). Particulars: OVCAR-8. It counts as functional, cell-based.
Experiment [7] is described as follows: A2780 cell killing – plate reader, dry powder samples, cytotoxicity control, dose response (AID 743046). It counts as functional, cell-based.
Experiment [8] in a line: growth inhibition of yeast DHODH-expressing 3D7 parasites – SYBR Green, dry powder samples, dose response (AID 1159570).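 Note: parasite growth measured after 72 hours of compound exposure.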 Format: functional, cell-based.
Experiment [9] in a line: Dd2 parasite growth inhibition in erythrocytes – SYBR Green, dry powder samples, set 9, dose response (AID 1159568). It counts as functional, cell-based.
The nature of experiment [10]: P. falciparum Dd2 growth inhibitors, dose response, SYBR Green, cherry-picked samples (AID 1159567). Format: functional, cell-based.
A short description of experiment [11]: Dd2 malaria parasite growth inhibition potency – SYBR Green, dry powder samples, dose response (AID 1159566).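 Note: potency for growth inhibition with lower SYBR green DNA signal.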 Format: functional, cell-based.
Experiment [12] is described as follows: Plasmodium falciparum Dd2 Sybr green parasite growth Measured in Cell-Based and Microorganism Combination System Using Plate Reader - 2153-01_Inhibitor_Dose_DryPowder_Activity_Set3. It counts as functional.
Experiment [13] in a line: growth inhibition of PfATP4-mutant resistant parasites – NITD609-resistant line, SYBR Green, dry powder, dose response (AID 1159571).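 Note: parasites synchronized at ring stage by sorbitol before testing.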 Format: functional, cell-based.
Experiment [14] can be described thus: cytotoxicity in MITF-independent A375 cells – cell-based, CellTiter-Glo luminescence, dry powder, set 4, counter-screen for MITF inhibitor project, dose response (AID 624364).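 Note: A375 melanoma cells are MITF independent so this is a counter screen.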 It counts as functional. Particulars: A-375. For orientation: Cellular ATP, detected with luciferase, serves as a proxy for viable cell number.
Experiment [15] in a line: viability loss in MITF-independent A375 cells – cell-based, CellTiter-Glo luminescence, dry powder, set 2, counter-screen for MITF inhibitor project, dose response (AID 624489).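 Note: actives are compounds lowering A375 viability meaning general cytotoxicity.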 Format: functional. Particulars: A-375.
The target of experiment [16] is Metabotropic glutamate receptor 5 (Rattus norvegicus, UniProt P31424). Nature of the experiment: Identification of a glycine sulfonamide based non-MPEP site positive allosteric potentiator (PAM) of mGlu5 (calcium_assay). Format: functional.
Chain of Metabotropic glutamate receptor 5 (P31424 whole entry): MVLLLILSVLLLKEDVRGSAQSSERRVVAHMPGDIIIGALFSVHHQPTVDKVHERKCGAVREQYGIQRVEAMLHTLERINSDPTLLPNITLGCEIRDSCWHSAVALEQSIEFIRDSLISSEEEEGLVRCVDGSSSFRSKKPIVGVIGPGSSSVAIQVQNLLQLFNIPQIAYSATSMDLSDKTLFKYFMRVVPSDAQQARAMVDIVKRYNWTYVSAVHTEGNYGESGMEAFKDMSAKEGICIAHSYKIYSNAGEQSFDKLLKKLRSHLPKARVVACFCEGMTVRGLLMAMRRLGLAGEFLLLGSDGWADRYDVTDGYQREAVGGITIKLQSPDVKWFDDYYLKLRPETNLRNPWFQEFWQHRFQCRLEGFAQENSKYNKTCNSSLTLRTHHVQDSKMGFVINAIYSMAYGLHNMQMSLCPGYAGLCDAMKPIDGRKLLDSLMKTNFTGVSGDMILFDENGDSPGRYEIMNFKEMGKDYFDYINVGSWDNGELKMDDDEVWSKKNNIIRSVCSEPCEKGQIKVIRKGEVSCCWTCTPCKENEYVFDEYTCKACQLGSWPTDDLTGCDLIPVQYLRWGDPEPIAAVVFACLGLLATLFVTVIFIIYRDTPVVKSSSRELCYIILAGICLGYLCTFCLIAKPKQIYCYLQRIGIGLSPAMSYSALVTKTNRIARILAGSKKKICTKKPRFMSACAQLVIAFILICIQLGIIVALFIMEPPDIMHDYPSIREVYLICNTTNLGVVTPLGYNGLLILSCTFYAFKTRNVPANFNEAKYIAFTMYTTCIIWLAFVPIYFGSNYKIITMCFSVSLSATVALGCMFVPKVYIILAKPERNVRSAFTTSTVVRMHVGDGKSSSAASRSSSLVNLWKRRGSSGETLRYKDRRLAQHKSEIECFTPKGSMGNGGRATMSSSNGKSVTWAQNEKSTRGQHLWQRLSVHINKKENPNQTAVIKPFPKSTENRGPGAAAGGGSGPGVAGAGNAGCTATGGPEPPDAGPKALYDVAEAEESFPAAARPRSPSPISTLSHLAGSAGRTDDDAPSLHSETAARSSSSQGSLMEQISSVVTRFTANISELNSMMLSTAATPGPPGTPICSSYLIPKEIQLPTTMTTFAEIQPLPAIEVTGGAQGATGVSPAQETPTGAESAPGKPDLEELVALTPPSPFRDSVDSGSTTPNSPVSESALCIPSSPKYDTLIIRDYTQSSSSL
The target of experiment [17] is Mitogen-activated protein kinase 10 (Homo sapiens, UniProt P53779). The experiment is described as follows: Dose response biochemical screening assay for inhibitors of c-Jun N-Terminal Kinase 3 (JNK3). [Related pubchem assays: 746 ].
Chain of Mitogen-activated protein kinase 10 (P53779 whole entry): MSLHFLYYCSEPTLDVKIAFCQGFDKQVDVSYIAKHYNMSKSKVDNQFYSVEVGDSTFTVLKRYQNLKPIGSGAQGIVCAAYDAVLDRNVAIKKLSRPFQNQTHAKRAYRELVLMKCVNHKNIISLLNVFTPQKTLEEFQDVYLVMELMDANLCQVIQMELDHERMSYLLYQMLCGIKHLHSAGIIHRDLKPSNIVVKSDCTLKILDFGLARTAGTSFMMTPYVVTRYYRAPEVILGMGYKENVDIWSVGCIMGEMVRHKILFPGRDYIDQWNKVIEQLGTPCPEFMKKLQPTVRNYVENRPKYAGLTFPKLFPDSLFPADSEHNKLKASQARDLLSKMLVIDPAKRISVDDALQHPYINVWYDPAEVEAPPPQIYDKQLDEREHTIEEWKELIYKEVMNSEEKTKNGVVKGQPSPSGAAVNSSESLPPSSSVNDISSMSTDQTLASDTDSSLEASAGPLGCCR
Experiment [18] is described as follows: toxicity to human HepG2 hepatoma cells – cell-based, plate reader, dry powder samples, cytotoxicity control, dose response (AID 1159569).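 Note: inhibitor potency with signal falling toward the positive control level.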 It counts as functional.
The nature of experiment [19]: toxicity to human hepatoma HepG2 cells – cell-based, cherry-picked samples, cytotoxicity control, dose response (AID 1159577). It counts as functional.

The source made the active and inactive calls.

What is called CC50 is the concentration at which the toxic effect on the cells reaches its halfway point. For orientation: AC50 means the concentration at which the activity in the assay is half-maximal. Broadly, the EC50 is the concentration giving half of the maximal effect. A word on the IC50: it is the concentration at which inhibition is half-maximal. Higher therefore signals weaker potency in that assay.

On to `CC12CCC(C(=O)Nc3cc(F)ccc3F)(CC1=O)C2(C)C` (stereo unspecified), for which the CC50 in [1] was > 40 µM (active).

Regarding `COc1ccc(NC(=O)N2C[C@@H]3N[C@H](C2)[C@@H]3c2ccc(-c3ccc(OC)cc3)cc2)cc1`, the AC50 on Paired box protein Pax-8 is 13.7 µM (active); in [2], 23.3 µM (active); in [3], 46.6 µM (active); in experiment [4], 26.6 µM (active); in [5] it was 32.5 µM (active); in experiment [6], 48.5 µM (active).

Consider `C[C@@H]1CN([C@@H](C)CO)C(=O)c2cc(NC(=O)Nc3ccc(F)cc3)ccc2O[C@@H](C)CCCCO[C@@H]1CN(C)Cc1ccc(C(F)(F)F)cc1`, for which the AC50 at Paired box protein Pax-8 was 9.46 µM (active); in [7] it was 0.363 µM (active); in experiment [3] it was 33.6 µM (active); in experiment [6], 39.9 µM (active).

Turning to `CCCNC(=O)N1[C@H](C#N)[C@H](c2ccc(C#Cc3cccc(F)c3)cc2)[C@H]1CO`, the AC50 was 8.92 µM (active) in [8]; 0.00951 µM (active) in experiment [9]; < 0.3 µM (active) in [10]; 0.00355 µM (active) in [11]; 0.0243 µM (active) in [12]; 0.00678 µM (active) in [13].

Consider `O=C(NC1=C(c2ccc(OC(F)(F)F)cc2)C(=O)c2ccccc2C1=O)c1ccc(Br)cc1`, for which the results for the AC50 in experiment [14] and in [15] were 41.1 µM (active) and 36.5 µM (active), respectively.

As for `CS(=O)(=O)N(CC(=O)NC1CCCCC1)c1cc(C(F)(F)F)ccc1Cl`, the EC50 in experiment [16] was 10 µM (inconclusive).

Regarding `CC(C(=O)Nc1ccc(Cl)cn1)N(c1ccccc1Cl)S(C)(=O)=O` (stereo unspecified), the EC50 in [16] was > 30 µM (inactive).

Regarding `O=C(c1cccc2c1-c1ccccc1/C2=N/O)N1CCCCC1`, in experiment [17], the IC50 was 40.7 µM (not active).

With `COc1ccc(-c2ccc([C@H]3[C@@H](C#N)N(C(=O)NC4CCCC4)[C@@H]3CO)cc2)cc1`, the AC50 is 5.29 µM (active) in experiment [8]; 81.4 µM (active) in [18]; < 0.3 µM (active) in [10]; 0.23 µM (active) in experiment [11]; > 39 µM (inactive) in experiment [19]; 0.208 µM (active) in experiment [12]. Besides, the AC50 in [13] was 0.248 µM (active).

With `CC(=O)NC1=C(c2cccc(Cl)c2)C(=O)c2ccccc2C1=O`, the AC50 in [14] was 14.4 µM (active); in experiment [15] it was 7.22 µM (active).
